pIC50: −log10 of the molar value.
These compounds were tested against Recombinant ROCK2 (amino acids 1-552) (Homo sapiens (Human), UniProt O75116) (assay: Z′-Lyte kinase assay, ROCK2). Settings: not given.
Assay type: biochemical
Experimental: Determination of Compound's ROCK Inhibitory Activity In Vitro (Z'Lyte Assay).
Recombinant ROCK1 (amino acids 1-535) and ROCK2 (amino acids 1-552) proteins were purchased from ThermoFisher Scientific. Compound's activities were measured by Z′-lyte kinase kit (ThermoFisher Scientific) and IC50 was calculated
In vitro activities for the compounds were measured with Z′-lyte kinase kit (ThermoFisher Scientific). The percent inhibition rate was calculated by normalizing the kinase activity value obtained with 1 μM compound treatment against DMSO control value and then applied to the formula, [1-(compound/DMSO)]×100%. IC50s were calculated using the nonlinear regression curve fit function of the GraphPad Prism software with kinase activities data measured with 9 points 2-fold serial dilution of compounds treatment. In cell pMLC IC50s were calculated with data obtained from A7R5 cell experiments. A7R5 cells were treated with 9 points 2-fold serial dilution of compounds and ppMlc (T18/S19) levels were determined to calculate cellular IC50 values of the compounds using the nonlinear regression curve fit function of the GraphPad Prism software. NIH3T3 cells stably expressing ACTA2-promoter-driven-luciferase were applied to measure ROCK compounds functional IC50s in cells. Cells were plated in 96 well plates to confluence and treated with 9 points serial dilution of compounds in combination with TGFβ1 for 24 hr. Luciferase activities were measured and compound's IC50s were calculated using the nonlinear regression curve fit function of the GraphPad Prism software.

Chain of Recombinant ROCK2 (amino acids 1-552) (O75116 1-552): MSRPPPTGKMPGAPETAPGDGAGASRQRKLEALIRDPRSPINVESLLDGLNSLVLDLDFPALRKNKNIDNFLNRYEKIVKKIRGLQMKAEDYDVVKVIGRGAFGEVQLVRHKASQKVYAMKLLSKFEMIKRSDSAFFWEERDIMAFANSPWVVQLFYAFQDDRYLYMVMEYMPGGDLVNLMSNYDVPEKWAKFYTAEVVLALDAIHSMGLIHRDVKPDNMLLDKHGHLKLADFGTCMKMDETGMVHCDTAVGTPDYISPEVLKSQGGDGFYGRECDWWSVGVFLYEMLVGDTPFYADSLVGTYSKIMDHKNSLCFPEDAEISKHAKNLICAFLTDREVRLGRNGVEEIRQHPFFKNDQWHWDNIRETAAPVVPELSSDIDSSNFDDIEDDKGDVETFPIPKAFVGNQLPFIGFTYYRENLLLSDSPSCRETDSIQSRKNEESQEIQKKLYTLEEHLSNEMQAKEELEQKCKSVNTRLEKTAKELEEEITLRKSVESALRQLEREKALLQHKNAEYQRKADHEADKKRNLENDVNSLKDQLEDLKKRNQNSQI

First: c1cc(Nc2ccc(-c3cn[nH]c3)cc2)nc(N2CCNCC2)n1 [Example 38, N-(4-(1H-pyrazol-4-yl)phenyl)-2-(piperazin-1-yl)pyrimidin-4-amine]
Second: c1cc(Nc2ccc(-c3cn[nH]c3)cc2)nc(N2CCCNCC2)n1 [Example 44, N-(4-(1H-pyrazol-4-yl)phenyl)-2-(1,4-diazepan-1-yl)pyrimidin-4-amine]
The pIC50 of the first is 0.31 log units lower: 6.35 for the first, 6.66 for the second.

Same assay, conditions: 1 μM compound; read-out: ROCK2 % inh. @ [conc]

Compared with `c1cc2[nH]ncc2cc1Nc1nc(N2CCCNCC2)nc2c1CSC2` [Example 12, 2-(1,4-diazepan-1-yl)-N-(1H-indazol-5-yl)-5,7-dihydrothieno[3,4-d]pyrimidin-4-amine], `COc1cnc(N2CCNCC2)nc1Nc1ccc2[nH]ncc2c1` [Example 30, N-(5-methoxy-2-(piperazin-1-yl)pyrimidin-4-yl)-1H-indazol-5-amine] is lower in inhibition at 1 µM: 97.3% for the first, 90.6% for the second.

First: Cc1nc(N2CCNC(C)C2)nc(Nc2ccc3[nH]ncc3c2)c1C (stereo not shown) [Example 13, N-(5,6-dimethyl-2-(3-methylpiperazin-1-yl)pyrimidin-4-yl)-1H-indazol-5-amine]
Second: Cc1nc(N2CCCNC(C)C2)nc(Nc2ccc3[nH]ncc3c2)c1C (stereo not shown) [Example 22, N-(5,6-dimethyl-2-(3-methyl-1,4-diazepan-1-yl)pyrimidin-4-yl)-1H-indazol-5-amine]
The inhibition at 1 µM of the first is lower: 58.1% for the first, 76.5% for the second.

Going from `CCC1CN(c2nc(C)c(C)c(Nc3ccc4[nH]ncc4c3)n2)CCN1` (stereo not shown) [Example 14, N-(2-(3-ethylpiperazin-1-yl)-5,6-dimethylpyrimidin-4-yl)-1H-indazol-5-amine] to `CCC1CN(c2nc(C)c(C)c(Nc3ccc4[nH]ncc4c3)n2)CCCN1` (stereo not shown) [Example 26, N-(2-(3-ethyl-1,4-diazepan-1-yl)-5,6-dimethylpyrimidin-4-yl)-1H-indazol-5-amine], the inhibition at 1 µM rises from 33.3% to 33.5%.

Compared with `Cc1nc(N2CCNC(C(C)C)C2)nc(Nc2ccc3[nH]ncc3c2)c1C` (stereo not shown) [Example 15, N-(2-(3-isopropylpiperazin-1-yl)-5,6-dimethylpyrimidin-4-yl)-1H-indazol-5-amine], `Cc1nc(N2CCNC(C(C)C)CC2)nc(Nc2ccc3[nH]ncc3c2)c1C` (stereo not shown) [Example 19, N-(2-(5-isopropyl-1,4-diazepan-1-yl)-5,6-dimethylpyrimidin-4-yl)-1H-indazol-5-amine] is lower in inhibition at 1 µM: 8% for the first, 4.6% for the second.

Going from `CCC1CCN(c2nc(C)c(C)c(Nc3ccc4[nH]ncc4c3)n2)CCN1` (stereo not shown) [Example 23, N-(2-(5-ethyl-1,4-diazepan-1-yl)-5,6-dimethylpyrimidin-4-yl)-1H-indazol-5-amine] to `Cc1nc(N2CCNC(C)CC2)nc(Nc2ccc3[nH]ncc3c2)c1C` (stereo not shown) [Example 25, N-(5,6-dimethyl-2-(5-methyl-1,4-diazepan-1-yl)pyrimidin-4-yl)-1H-indazol-5-amine], the inhibition at 1 µM rises from 29.5% to 52.9%.

Compared with `Cc1nc(N2CCNCC2C)nc(Nc2ccc3[nH]ncc3c2)c1C` (stereo not shown) [Example 27, N-(5,6-dimethyl-2-(2-methylpiperazin-1-yl)pyrimidin-4-yl)-1H-indazol-5-amine], `Cc1nc(N2CCNCC(C)C2)nc(Nc2ccc3[nH]ncc3c2)c1C` (stereo not shown) [Example 28, N-(5,6-dimethyl-2-(6-methyl-1,4-diazepan-1-yl)pyrimidin-4-yl)-1H-indazol-5-amine] is lower in inhibition at 1 µM: 71.3% for the first, 45% for the second.

Going from `COc1cnc(N2CCNC(C)C2)nc1Nc1ccc2[nH]ncc2c1` (stereo not shown) [Example 31, N-(5-methoxy-2-(3-methylpiperazin-1-yl)pyrimidin-4-yl)-1H-indazol-5-amine] to `COc1cnc(N2CCCNC(C(C)C)C2)nc1Nc1ccc2[nH]ncc2c1` (stereo not shown) [Example 32, N-(2-(3-isopropyl-1,4-diazepan-1-yl)-5-methoxypyrimidin-4-yl)-1H-indazol-5-amine], the inhibition at 1 µM falls from 78.1% to 44.6%.

First: c1cc(Nc2ccc(-c3cn[nH]c3)cc2)nc(N2CCNCC2)n1 [Example 38, N-(4-(1H-pyrazol-4-yl)phenyl)-2-(piperazin-1-yl)pyrimidin-4-amine]
Second: c1cc(Nc2ccc(-c3cn[nH]c3)cc2)nc(N2CCCNCC2)n1 [Example 44, N-(4-(1H-pyrazol-4-yl)phenyl)-2-(1,4-diazepan-1-yl)pyrimidin-4-amine]
The inhibition at 1 µM of the first is lower: 63.1% for the first, 72.7% for the second.

These compounds were tested on ppMlc (T18/S19) levels in A7R5 cells (assay: A7R5 in-cell ELISA (pMLC)). Settings: Rattus norvegicus, A7R5, A7R5 cells, 1 μM compound; read-out: pMLC % inh A7R5 @ [conc].
Assay type: cell-based, Rat
Method in brief: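 A7R5 rat aortic smooth muscle cells seeded 24 h, then treated 90 min with a 9-point 2-fold compound dilution series. Fixed cells probed for ppMlc (T18/S19) by colorimetric in-cell ELISA; cellular IC50 from nonlinear regression curve fit.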

First: Cc1nc(N2CCNCC2C)nc(Nc2ccc3[nH]ncc3c2)c1C (stereo not shown) [Example 27, N-(5,6-dimethyl-2-(2-methylpiperazin-1-yl)pyrimidin-4-yl)-1H-indazol-5-amine]
Second: Cc1nc(N2CCNCC(C)C2)nc(Nc2ccc3[nH]ncc3c2)c1C (stereo not shown) [Example 28, N-(5,6-dimethyl-2-(6-methyl-1,4-diazepan-1-yl)pyrimidin-4-yl)-1H-indazol-5-amine]
The inhibition at 1 µM of the first is higher: 16.8% for the first, 11.8% for the second.

Going from `c1cc(Nc2ccc(-c3cn[nH]c3)cc2)nc(N2CCNCC2)n1` [Example 38, N-(4-(1H-pyrazol-4-yl)phenyl)-2-(piperazin-1-yl)pyrimidin-4-amine] to `c1cc(Nc2ccc(-c3cn[nH]c3)cc2)nc(N2CCCNCC2)n1` [Example 44, N-(4-(1H-pyrazol-4-yl)phenyl)-2-(1,4-diazepan-1-yl)pyrimidin-4-amine], the inhibition at 1 µM rises from 9.2% to 13.2%.

Same assay, conditions: Rattus norvegicus, A7R5, A7R5 cells, 10 μM compound; read-out: pMLC % inh A7R5 @ [conc]

Going from `c1cc2[nH]ncc2cc1Nc1nc(N2CCCNCC2)nc2c1CSC2` [Example 12, 2-(1,4-diazepan-1-yl)-N-(1H-indazol-5-yl)-5,7-dihydrothieno[3,4-d]pyrimidin-4-amine] to `COc1cnc(N2CCNCC2)nc1Nc1ccc2[nH]ncc2c1` [Example 30, N-(5-methoxy-2-(piperazin-1-yl)pyrimidin-4-yl)-1H-indazol-5-amine], the inhibition at 10 µM falls from 95% to 56.4%.

Going from `Cc1nc(N2CCNC(C)C2)nc(Nc2ccc3[nH]ncc3c2)c1C` (stereo not shown) [Example 13, N-(5,6-dimethyl-2-(3-methylpiperazin-1-yl)pyrimidin-4-yl)-1H-indazol-5-amine] to `Cc1nc(N2CCCNC(C)C2)nc(Nc2ccc3[nH]ncc3c2)c1C` (stereo not shown) [Example 22, N-(5,6-dimethyl-2-(3-methyl-1,4-diazepan-1-yl)pyrimidin-4-yl)-1H-indazol-5-amine], the inhibition at 10 µM rises from 51.1% to 54.2%.

First: CCC1CN(c2nc(C)c(C)c(Nc3ccc4[nH]ncc4c3)n2)CCN1 (stereo not shown) [Example 14, N-(2-(3-ethylpiperazin-1-yl)-5,6-dimethylpyrimidin-4-yl)-1H-indazol-5-amine]
Second: CCC1CN(c2nc(C)c(C)c(Nc3ccc4[nH]ncc4c3)n2)CCCN1 (stereo not shown) [Example 26, N-(2-(3-ethyl-1,4-diazepan-1-yl)-5,6-dimethylpyrimidin-4-yl)-1H-indazol-5-amine]
The inhibition at 10 µM of the first is higher: 48.9% for the first, 39.9% for the second.

Going from `Cc1nc(N2CCNC(C(C)C)C2)nc(Nc2ccc3[nH]ncc3c2)c1C` (stereo not shown) [Example 15, N-(2-(3-isopropylpiperazin-1-yl)-5,6-dimethylpyrimidin-4-yl)-1H-indazol-5-amine] to `Cc1nc(N2CCNC(C(C)C)CC2)nc(Nc2ccc3[nH]ncc3c2)c1C` (stereo not shown) [Example 19, N-(2-(5-isopropyl-1,4-diazepan-1-yl)-5,6-dimethylpyrimidin-4-yl)-1H-indazol-5-amine], the inhibition at 10 µM rises from 26.4% to 31.8%.

Compared with `CCC1CCN(c2nc(C)c(C)c(Nc3ccc4[nH]ncc4c3)n2)CCN1` (stereo not shown) [Example 23, N-(2-(5-ethyl-1,4-diazepan-1-yl)-5,6-dimethylpyrimidin-4-yl)-1H-indazol-5-amine], `Cc1nc(N2CCNC(C)CC2)nc(Nc2ccc3[nH]ncc3c2)c1C` (stereo not shown) [Example 25, N-(5,6-dimethyl-2-(5-methyl-1,4-diazepan-1-yl)pyrimidin-4-yl)-1H-indazol-5-amine] is higher in inhibition at 10 µM: 46.4% for the first, 48.3% for the second.

First: COc1cnc(N2CCNC(C)C2)nc1Nc1ccc2[nH]ncc2c1 (stereo not shown) [Example 31, N-(5-methoxy-2-(3-methylpiperazin-1-yl)pyrimidin-4-yl)-1H-indazol-5-amine]
Second: COc1cnc(N2CCCNC(C(C)C)C2)nc1Nc1ccc2[nH]ncc2c1 (stereo not shown) [Example 32, N-(2-(3-isopropyl-1,4-diazepan-1-yl)-5-methoxypyrimidin-4-yl)-1H-indazol-5-amine]
The inhibition at 10 µM of the first is higher: 58% for the first, 53.7% for the second.

Same assay, conditions: Rattus norvegicus, A7R5, A7R5 cells, ppMlc (T18/S19)

`c1cc2[nH]ncc2cc1Nc1nc(N2CCCNCC2)nc2c1CSC2` [Example 12, 2-(1,4-diazepan-1-yl)-N-(1H-indazol-5-yl)-5,7-dihydrothieno[3,4-d]pyrimidin-4-amine] and `COc1cnc(N2CCNCC2)nc1Nc1ccc2[nH]ncc2c1` [Example 30, N-(5-methoxy-2-(piperazin-1-yl)pyrimidin-4-yl)-1H-indazol-5-amine] are within 1.5-fold of each other in IC50: 839 nM for the first, 1120 nM for the second.

`Cc1nc(N2CCNC(C)C2)nc(Nc2ccc3[nH]ncc3c2)c1C` (stereo not shown) [Example 13, N-(5,6-dimethyl-2-(3-methylpiperazin-1-yl)pyrimidin-4-yl)-1H-indazol-5-amine] and `Cc1nc(N2CCCNC(C)C2)nc(Nc2ccc3[nH]ncc3c2)c1C` (stereo not shown) [Example 22, N-(5,6-dimethyl-2-(3-methyl-1,4-diazepan-1-yl)pyrimidin-4-yl)-1H-indazol-5-amine] are within 1.5-fold of each other in IC50: 1490 nM for the first, 1390 nM for the second.

Compared with `COc1cnc(N2CCNC(C)C2)nc1Nc1ccc2[nH]ncc2c1` (stereo not shown) [Example 31, N-(5-methoxy-2-(3-methylpiperazin-1-yl)pyrimidin-4-yl)-1H-indazol-5-amine], `COc1cnc(N2CCCNC(C(C)C)C2)nc1Nc1ccc2[nH]ncc2c1` (stereo not shown) [Example 32, N-(2-(3-isopropyl-1,4-diazepan-1-yl)-5-methoxypyrimidin-4-yl)-1H-indazol-5-amine] is 2.1-fold higher in IC50: 1850 nM for the first, 3950 nM for the second. The first is the more potent here.

Source: US11613531B2, “Inhibitors of RHO associated coiled-coil containing protein kinase” (Kadmon Corporation, LLC, priority 2017, dated 2023)
